Positions of bridges follow the written chain, without caps; N, C: chain ends. Non-standard residues stand in square brackets, D forms with d. Residues, ends and D or L forms follow the SMILES beside them. *: point of attachment. 5FAM = O=C1OC2(c3ccc(O)cc3Oc3cc(O)ccc32)c2ccc(C(=O)*)cc21; βAla = NCCC(=O)O
Assay: Fluorescence anisotropy with empty liposomes (specificity control)
Type: binding
Conditions: CP^F 50 nM
Procedure: In order to analyze the binding affinity and specificity of CPs to TmrAB, we established a fluorescence polarization assay. Fluorescein-labeled CP^Fs were incubated with increasing concentrations of TmrAB reconstituted in liposomes at a protein-to-lipid ratio of 1:20 (w/w). […] To address whether the CPs recognize a linear or non-linear epitope, we examined the binding of CP^Fs after disrupting the quaternary and tertiary structure of TmrAB complexes by adding anionic detergent SDS.
Figure 2. […] (A, B) Equilibrium binding analysis. Fluorescence anisotropy of CP^Fs (50 nM) was determined at λex/em = 485/520 nm with increasing concentrations of TmrAB which was reconstituted in liposomes. TmrAB concentrations were calculated based on the random (50/50%) orientation in proteoliposomes ([Stefan et al., 2020]). As a control, equal amounts of empty liposomes were added to CP^Fs (dashed lines, open symbols). The difference in fluorescence polarization was normalized to free (0%) and 100% bound CP^F. Mean values ± SD (n = 3) are shown, and data were analyzed by a one-site binding model. […] Streptavidin beads loaded with CP14^B (1 µM) were mixed with purified TmrAB (60 nM) for 1 hr at 4°C. Beads were washed and bound TmrAB was eluted by adding SDS loading buffer for 10 min at 95°C. Amounts of TmrA in input (I), flow-through (FT), wash fraction (W), and eluate (E) were analyzed by SDS-PAGE and immunoblotting (α-His). Beads without CP^B served as negative control (right panel). (D) One-step purification of TmrAB via immobilized CP14^B matrices. Streptavidin-agarose beads were loaded with CP14^B (1 µM) and mixed with DDM-solubilized membranes of E. coli containing TmrAB as described in (C). Bound TmrAB was eluted in SDS loading buffer and analyzed by SDS-PAGE (silver stain). (E) Native mass spectrometry. TmrAB (4 µM) was buffer exchanged to ESI buffer and incubated with a 2-fold molar excess of CP14^F for 10 min on ice. Protein complexes were investigated by ESI-TOF-mass spectrometry. […] Figure 2—source data 1. Source data for Figure 2. Figure 2—figure supplement 1. […] (A) CP^Bs-mediated isolation of solubilized TmrAB. Streptavidin matrices were loaded with CP^Bs (1 µM) and incubated with purified TmrAB (60 nM) for 1 hr at 4°C. Beads without CP^Bs served as control (see Figure 2C). Bound TmrAB complexes were eluted by the addition of SDS loading buffer for 10 min at 95°C. TmrAB in input (I), flow-through (FT), washing fraction (W), and eluate (E) was analyzed by SDS-PAGE and immunoblotting (α-His). […] Bound TmrAB complexes were eluted in SDS loading buffer and analyzed by SDS-PAGE (silver stain). […] CP^F-TmrAB complexes were analyzed by gel filtration. […] Fluorescence anisotropy was determined at λex/em = 485/520 nm. […]

Row | SMILES | Bound CP^F (amount equal to 0.2500 µM) [%] | Bound CP^F (amount equal to 0.5000 µM) [%]
1 | CC(C)[C@@H]1NC(=O)[C@H](Cc2ccccc2)NC(=O)[C@@H]2CCCN2C(=O)[C@H](CC(N)=O)NC(=O)[C@H](Cc2c[nH]c3ccccc23)NC(=O)[C@H](C(C)C)NC(=O)[C@H](Cc2ccc(O)cc2)NC(=O)[C@H](Cc2ccccc2)NC(=O)[C@@H](Cc2ccc(O)cc2)NC(=O)CSC[C@@H](C(=O)NCC(=O)N[C@@H](CO)C(=O)NCCC(=O)NCCC(=O)N[C@@H](CCCNC(=N)N)C(=O)N[C@@H](CCCCNC(=O)c2ccc3c(c2)C(=O)OC32c3ccc(O)cc3Oc3cc(O)ccc32)C(N)=O)NC(=O)[C@H](CCCCN)NC(=O)[C@H](Cc2ccccc2)NC1=O [CP14] ({CH2CO}-[dY]FYVWNPFVFKCGS[βAla][βAla]RK(5FAM)-NH2; thioether N-12; C-terminus assumed) | -5.24 | –
2 | CC[C@H](C)[C@@H]1NC(=O)[C@H]([C@@H](C)O)NC(=O)[C@H](CC(C)C)NC(=O)[C@H](Cc2c[nH]c3ccccc23)NC(=O)[C@H](Cc2ccccc2)NC(=O)[C@H](CC(N)=O)NC(=O)[C@H](CCC(=O)O)NC(=O)[C@H](CC(C)C)NC(=O)[C@H](CS)NC(=O)[C@H](Cc2c[nH]cn2)NC(=O)[C@H](CO)NC(=O)[C@@H](Cc2ccc(O)cc2)NC(=O)CSC[C@@H](C(=O)NCC(=O)N[C@@H](CO)C(=O)NCCC(=O)NCCC(=O)N[C@@H](CCCNC(=N)N)C(=O)N[C@@H](CCCCNC(=O)c2ccc3c(c2)C(=O)OC32c3ccc(O)cc3Oc3cc(O)ccc32)C(N)=O)NC(=O)[C@H](CC(C)C)NC1=O [CP6] ({CH2CO}-[dY]SHCLENFWLTILCGS[βAla][βAla]RK(5FAM)-NH2; thioether N-14) | – | -6.19
3 | CC(C)C[C@@H]1NC(=O)[C@H](Cc2ccccc2)NC(=O)CNC(=O)[C@H](CO)NC(=O)[C@H](Cc2ccccc2)NC(=O)[C@H](CC(=O)O)NC(=O)[C@@H]2CCCN2C(=O)[C@H]([C@@H](C)O)NC(=O)[C@@H](Cc2ccc(O)cc2)NC(=O)CSC[C@@H](C(=O)NCC(=O)N[C@@H](CO)C(=O)NCCC(=O)NCCC(=O)N[C@@H](CCCNC(=N)N)C(=O)N[C@@H](CCCCNC(=O)c2ccc3c(c2)C(=O)OC32c3ccc(O)cc3Oc3cc(O)ccc32)C(N)=O)NC(=O)[C@H](C)NC(=O)[C@H](CC(N)=O)NC(=O)[C@H](CCCNC(=N)N)NC(=O)[C@H](CC(C)C)NC(=O)[C@H](Cc2ccccc2)NC(=O)[C@H](C)NC1=O [CP12] ({CH2CO}-[dY]TPDFSGFLAFLRNACGS[βAla][βAla]RK(5FAM)-NH2; thioether N-16) | – | -0.19
4 | CC[C@H](C)[C@@H]1NC(=O)[C@H](Cc2c[nH]c3ccccc23)NC(=O)[C@H](CC(N)=O)NC(=O)[C@H](C)NC(=O)[C@H](CO)NC(=O)[C@@H]2CCCN2C(=O)[C@H](CC(=O)O)NC(=O)[C@@H](Cc2ccc(O)cc2)NC(=O)CSC[C@@H](C(=O)NCC(=O)N[C@@H](CO)C(=O)NCCC(=O)NCCC(=O)N[C@@H](CCCNC(=N)N)C(=O)N[C@@H](CCCCNC(=O)c2ccc3c(c2)C(=O)OC32c3ccc(O)cc3Oc3cc(O)ccc32)C(N)=O)NC(=O)[C@H]([C@@H](C)O)NC(=O)[C@H](CC(C)C)NC(=O)[C@H](CC(C)C)NC(=O)[C@H](C(C)C)NC(=O)[C@H](CC(C)C)NC1=O [CP13] ({CH2CO}-[dY]DPSANWILVLLTCGS[βAla][βAla]RK(5FAM)-NH2; thioether N-14; C-terminus assumed) | 3.65 | –
